The values that follow are results of earlier work, collected in patent publication US20250049835A1, “COMPOSITIONS FOR ALTERING CYCLIC ADP-RIBOSE SECONDARY MESSENGER SIGNALLING” (Yeda Research and Development Co. Ltd., priority 2022, published 2025).

The series deals with T1, Bacillus cereus MSX-D12 ThsA enzyme (Bacillus cereus, UniProt J8G6Z1).
T1 construct: The reporter enzyme ThsA was expressed and purified as described previously; made in house
T1 sequence (J8G6Z1 1-476): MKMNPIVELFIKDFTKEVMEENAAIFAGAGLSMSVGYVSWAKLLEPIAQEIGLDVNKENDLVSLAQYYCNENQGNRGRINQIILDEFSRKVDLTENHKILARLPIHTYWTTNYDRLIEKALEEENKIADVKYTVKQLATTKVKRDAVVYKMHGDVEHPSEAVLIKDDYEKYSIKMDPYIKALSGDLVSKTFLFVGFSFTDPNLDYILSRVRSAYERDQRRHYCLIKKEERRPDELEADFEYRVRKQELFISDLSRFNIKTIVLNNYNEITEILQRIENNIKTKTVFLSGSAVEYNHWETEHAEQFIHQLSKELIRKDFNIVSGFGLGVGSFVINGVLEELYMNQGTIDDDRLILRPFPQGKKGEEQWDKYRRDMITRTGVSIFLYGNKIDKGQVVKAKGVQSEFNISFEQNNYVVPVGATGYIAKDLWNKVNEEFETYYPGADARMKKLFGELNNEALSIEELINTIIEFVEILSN
To be noted: previously shown.

`Nc1ncnc2c1ncn2[C@@H]1O[C@@H]2COP(=O)(O)OP(=O)(O)OC[C@H]3O[C@@H](OC1C2O)C(O)C3O` (stereo partly shown) [1′-2′ gcADPR]: the “Activation of ThsA by cADPR isomer produced by plant TIR proteins” value is “can activate the Theoris effector ThsA”.
